{"source": "patent US20220280447A1", "about": "“COMPOSITIONS AND METHODS FOR IMPROVING BRAIN FUNCTION” (HEALTH VIA MODERN NUTRITION INC., priority 2021, published 2022)", "origin": "cited, not measured here", "key": {"[1]": {"conditions": "rats fed diet supplemented as 30% of calories"}, "[2]": {"conditions": "20-month oral administration, patient with Alzheimer's disease dementia"}, "[3]": {"conditions": "Schizophrenia-like rat model"}, "[4]": {"conditions": "in vitro studies"}, "[5]": {"conditions": "animal studies"}, "[6]": {"conditions": "teenagers with social anxiety disorders"}, "[7]": {"conditions": "animal models"}, "NF-icB activation": {"system": "NF-icB activation", "conditions": "in vitro"}, "[8]": {"system": "reactive oxygen species (ROS) production by mitochondria", "conditions": "in vitro"}, "[9]": {"conditions": "Alzheimer's disease transgenic mice"}, "[10]": {"conditions": "children"}}, "note": "Where two headings read alike, the source gives them in different places.", "data": [{"smiles": "C[C@@H](O)CCOC(=O)C[C@@H](C)O", "note": "[(R)-3-hydroxyburyl (R)-3-hydroxybutyrate]", "values": [{"measurement": "cognitive and physical performance", "setting": "[1]", "result": "improved cognitive and physical performance"}]}, {"smiles": "C[C@@H](O)CCOC(=O)C[C@@H](C)O", "note": "[ketone monoester]", "values": [{"measurement": "mood, affect, self-care, cognitive and daily activity performance", "setting": "[2]", "result": "improved markedly"}]}, {"smiles": "C=C(C)[C@@H]1CCC(C)=C[C@H]1c1c(O)cc(CCCCC)cc1O", "note": "[CBD, cannabidiol]", "values": [{"measurement": "cognitive impairment", "setting": "[3]", "result": "improve cognitive impairment"}, {"measurement": "cortical transcriptional changes", "setting": "[3]", "result": "reverse cortical transcriptional changes"}, {"measurement": "anti-inflammatory properties", "setting": "[4]", "result": "strong anti-inflammatory properties"}, {"measurement": "anti-inflammatory properties", "setting": "[5]", "result": "strong anti-inflammatory properties"}, {"measurement": "anxiolytic effect", "setting": "[6]", "result": "anxiolytic effect"}, {"measurement": "effect on adenosine A1 receptors", "setting": "adenosine A1 receptors", "result": "affect adenosine A1 receptors"}, {"measurement": "anti-anxiety and antidepressant effects", "setting": "[7]", "result": "anti-anxiety and antidepressant effects"}, {"measurement": "NF-icB activation", "setting": "NF-icB activation", "result": "inhibits"}, {"measurement": "reactive oxygen species (ROS) production by mitochondria", "setting": "[8]", "result": "inhibits"}, {"measurement": "development of a social recognition deficit", "setting": "[9]", "result": "prevent the development of a social recognition deficit"}, {"measurement": "treatment of certain seizure disorders", "setting": "[10]", "result": "effective"}]}]}
